Measured values published in US5908787A, “Total protein detection method” (Bayer Corporation, priority 1997, dated 1999).

Experiments:
pKa of secondary dye = assay type: physicochemical; conditions: second pKa of the dye
Source text: Structure A represents the general structure of phenolsulfonephthalein derivatives in protic solvents such as water or an alcohol while structure B represents the form that predominates in the dry state or in aprotic solvents such as ethers and acetonitrile. The phenolsulfonephthalein error indicators are pH indicators which include an ionizable proton having a pKa value such that the proton is displaced by the presence of protein. The pKa value of a phenolsulfonephthalein indicator is the pH at which one half of the number of indicator molecules include the deprotonated C ring phenolic hydroxyl group. In the case of the phenolsulfonephthalein protein error indicators illustrated above, two deprotonation events occur in order to cause an observable color change. The first deprotonation removes the proton from the aryl sulfonic acid on the A ring to yield the ion illustrated below as formula C: [drawing 2]
The pKa of this proton is less than one, resulting in the ionization of this moiety at all useful pH values. This ionizable group is also responsible for the aqueous solubility of these compounds. The second deprotonation involves the release of a proton from the C ring phenolic hydroxyl to yield the dianion. With this type of protein error indicator, the second deprotonization causes the observable color change which is indicative of the presence of protein in the sample being tested. The phenolsulfonephthalein protein error indicator is typically applied to an absorbent matrix material along with a buffer to provide an environment of constant pH, so that one can rely on the color change being the result of the presence of protein rather than the result of a pH change upon contact with the test fluid.

protein = experiment: Ka, affinity of secondary dye for protein; assay type: binding
Source text: The phenolsulfonephthalein protein error indicators are used in conjunction with the molybdate or tungstate salt assay for protein in which a fluid test sample is combined with a molybdate or tungstate salt and a dye which forms a complex therewith whose absorption band is shifted in the presence of protein. As is disclosed in U.S. Pat. No. 5,399,498; tungstate reacts with the indicator to form a complex whose color shifts in the presence of protein in a manner similar to that of molybdenum. This patent also discloses the use of phytic acid or derivatives thereof to reduce background interference in this sort of assay. […] This method is a total protein assay since the response is not dependent on the type of protein present in the test sample. […] Since total protein assays are useful in the detection of certain disease states, and the higher the total protein spillover into urine the more serious the potential problem, a total protein assay which provides a detectable response at high protein concentrations is desirable.

SMILES	pKa (pKa of secondary dye)	affinity for protein (in words) (protein)
O=S1(=O)OC(c2cc(Br)c(O)c(Br)c2)(c2cc(Br)c(O)c(Br)c2)c2ccccc21 [Secondary dye 1, Bromophenol blue]	3.7	–
O=S1(=O)OC(c2cc(Br)c(O)c(Br)c2)(c2cc(Br)c(O)c(Br)c2)c2c(Br)c(Br)c(Br)c(Br)c21 [Secondary dye 2, Tetrabromophenol blue]	3.5	–
O=S1(=O)OC(c2cc(Cl)c(O)c(Br)c2)(c2cc(Cl)c(O)c(Br)c2)c2ccccc21 [Secondary dye 3, Bromochlorophenol blue]	3.8	–
O=S1(=O)OC(c2cc(I)c(O)c(I)c2)(c2cc(I)c(O)c(I)c2)c2ccccc21 [Secondary dye 4, Tetraiodophenolsulfonephthalein]	4.0	–
O=[N+]([O-])c1cc(C2(c3cc(I)c(O)c([N+](=O)[O-])c3)OS(=O)(=O)c3c(Br)c(Br)c(Br)c(Br)c32)cc(I)c1O [Secondary dye 5, 5',5"-Dinitro-3',3"-Diiodo-3,4,5,6-Tetrabromophenolsulfonephthalein]	1.5	too high an affinity for proteins
O=[N+]([O-])c1cc(C2(c3cc(Br)c(O)c([N+](=O)[O-])c3)OS(=O)(=O)c3c(Br)c(Br)c(Br)c(Br)c32)cc(Br)c1O [Secondary dye 6, 5',5"-Dinitro-3',3",3,4,5,6-hexabromophenolsulfonephthalein]	1.6	–
O=[N+]([O-])c1cc(C2(c3cc(Br)c(O)c(I)c3)OS(=O)(=O)c3c(Br)c(Br)c(Br)c(Br)c32)cc(Br)c1O (centres unmarked) [Secondary dye 7, 5'-Nitro-5''-Iodo-3',3"3,4,5,6-hexabromophenolsulfonephthalein]	1.6	–
